The values that follow come from patent publication US10709725B2, “Gemcitabine ProTide hypoxia-activated prodrug and application thereof” (JIANGSU QIANZHIKANG BIOLOGICAL MEDICINE SCIENCE AND …, priority 2016, dated 2020).

For data set [1], the system named is Human lung adenocarcinoma cell A549. The data set can be described thus: In-vitro inhibition of tumor cell proliferation (3H-TdR, 72 h), normal oxygen and hypoxic. It is filed as cell-based. The following applies: A549, 72 h. The protocol:
(§1) Take tumor cells in the logarithmic growth phase, add 0.25% pancreatin for digestion for 3 min, use RPMI-1640 containing 10% calf serum for suspension culture of the cells, count the number, adjust cell concentration to 1×10^5 cells/mL, inoculate to a Top-count dedicated 96-well cell culture plate at 100 μL/well, and incubate at 37° C. and 5% CO2 for 24 h; divide the cells into experimental groups and control groups, and add a target compound solution (0.001 μg/mL, 0.01 μg/mL, 0.1 μg/mL, 1 μg/mL, 10 μg/mL) to the experimental groups, wherein each concentration corresponded to four wells, and the volume of each well was made up to 200 μL; after adding samples, continue to culture for 72 h for each group (for hypoxic groups, continue to culture for 72 h at 5% CO2, 95% N2), add ^3H-TdR 3×10^5Bq to each group before culture ended, and measure the CPM (count per minute) value of each well with Top-count; and calculate the median inhibition concentration (IC50) of drugs in each experimental group on cell proliferation.

The test system of data set [2] is Human liver cancer HepG2 cell. Described as above. It is filed as cell-based. To be noted: HepG2, 72 h. The method, then: as §1
Data set [3] relates to subcutaneous transplantation tumor of human BxPC-3. The data set can be described thus: Growth inhibition of subcutaneous transplantation tumor of human BxPC-3 in nude mice, with animal weight. It is filed as in vivo. The following applies: high-dose group, 4 times of the effective dose (0.4 mmol/kg); FIG. 3. The protocol:
Take BxPC-3 human pancreatic cancer cells in the logarithmic growth phase, inoculate subcutaneously on the back of nude mice at a concentration of 5×10^6 cells·0.2 mL^−1·mouse^−1, three weeks later, after the long diameters of the transplanted tumors in nude mice were all ≥5 mm, calculate the similar volume of tumor bodies based on the long diameter and short diameter of the transplanted tumors. Nude mice were divided into 5 groups by a random block design and allocation method according to the tumor volume.
Administration scheme: 50 model animals were randomly divided into a negative control group, a low-dose group (compound 001, 0.1 mmol/kg), a high-dose group (compound 001, 0.4 mmol/kg), a gemcitabine hydrochloride group (0.2 mmol/kg), and a combined administration group (compound 001, 0.1 mmol/kg+ gemcitabine hydrochloride, 0.1 mmol/kg), intraperitoneally injected (twice per week) for 3 weeks, and killed one week after drug withdrawal. At the same time, animal weight was measured and the eye condition of the animal was observed.

In data set [4] the test system is Human pancreatic adenocarcinoma cell BxPC-3 cell. In words: In-vitro inhibition of tumor cell proliferation (3H-TdR, 72 h), normal oxygen and hypoxic. To be noted: Homo sapiens, BxPC-3, 72 h. It is filed as cell-based.
Setting [5] is: hypoxic (5% CO2, 95% N2), read-out: Median inhibition concentration IC50 hypoxic (nitrogen).
Setting [6] is: normal oxygen (air), read-out: Median inhibition concentration IC50 normal oxygen (air).

Values after ≈ are worked out from the molar mass of the structure shown. “Also recorded” adds a separate entry of the source. Where two headings read alike, the source gives them in different places.

As to `CC(OC(=O)[C@H](C)NP(=O)(OC[C@H]1O[C@@H](n2ccc(N)nc2=O)C(F)(F)C1O)Oc1ccccc1)c1ccc([N+](=O)[O-])cc1` (stereo partly shown) [Compound 001], the IC50 in data set [1] (setting [5]) was 0.05 µg/mL (≈ 0.0782 µM); in data set [1] (setting [6]) it was 1 µg/mL (≈ 1.56 µM); in data set [2] (setting [5]), 0.3 µg/mL (≈ 0.469 µM); in data set [2] (setting [6]), greater than 10 µg/mL; in data set [4] (setting [5]), 0.2 µg/mL (≈ 0.313 µM); in data set [4] (setting [6]) it was greater than 10 µg/mL. Moreover, in data set [3], the Animal weight entry is “no significant difference in animal weight; also recorded: not significantly different from that of the low-dose group and a positive control drug gemcitabine group”.
